Test results published in patent US10414811B2, “Protease-resistant lipidated GLP-1 analogs” (MEDIMMUNE LIMITED, priority 2015, dated 2019).
Where two headings read alike, the source gives them in different places. Numbered stars: 1 amine (or outer) side, 2 acyl side, 3 side chain; on linkers, the order of the positions; unused ones are H or OH. Square brackets hold non-standard residues; d marks the D form. Side chains are listed from the residue outwards. Peptide text beside a SMILES is read from it. * marks the point of attachment. γGlu = O=C(O)[C@H](CCC(=O)[*:2])N[*:1]; αMeF = C[C@](N)(Cc1ccccc1)C(=O)O; αMeK = C[C@](N)(CCCCN)C(=O)O; Lauroyl = CCCCCCCCCCCC(=O)*; αMeS = C[C@](N)(CO)C(=O)O; AEEA = NCCOCCOCC(=O)O; Aib = CC(C)(N)C(=O)O

Tests used:
Assay type in all cases: cell-based
[1] = target: T1, human glucose-dependent insulinotropic peptide receptor (GIPR) (Homo sapiens, UniProt P48546); assay: cAMP assay, human GIPR cells
T1 construct: expressed in transfected cells
T1 sequence (P48546 22-466): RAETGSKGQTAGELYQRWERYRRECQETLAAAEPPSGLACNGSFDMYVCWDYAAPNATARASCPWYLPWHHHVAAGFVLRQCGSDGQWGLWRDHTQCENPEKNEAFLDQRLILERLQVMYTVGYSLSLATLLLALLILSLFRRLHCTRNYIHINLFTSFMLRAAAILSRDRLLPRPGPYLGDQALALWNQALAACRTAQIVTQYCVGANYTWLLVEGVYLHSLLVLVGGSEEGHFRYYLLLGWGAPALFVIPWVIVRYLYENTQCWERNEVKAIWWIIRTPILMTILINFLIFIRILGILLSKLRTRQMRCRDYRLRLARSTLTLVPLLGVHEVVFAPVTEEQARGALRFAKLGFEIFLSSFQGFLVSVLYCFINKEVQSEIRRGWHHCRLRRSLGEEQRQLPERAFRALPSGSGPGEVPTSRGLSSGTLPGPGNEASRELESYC
In short: (§1)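 Peptide-stimulated cAMP measured by two-step HTRF after a 30 min room-temperature incubation with receptor-expressing cells (hGLP-1R, hGIPR at 1×10^5 cells/ml; hGCGR at 2×10^5 cells/ml). Duplicate dilutions; EC50 from 4-parameter logistic fit of % Delta F.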

[2] = target: T2, human glucagon receptor (GCGR) (Homo sapiens, UniProt P47871); assay: cAMP assay, human GCGR cells
T2 construct: expressed in transfected cells
T2 sequence (P47871 26-477): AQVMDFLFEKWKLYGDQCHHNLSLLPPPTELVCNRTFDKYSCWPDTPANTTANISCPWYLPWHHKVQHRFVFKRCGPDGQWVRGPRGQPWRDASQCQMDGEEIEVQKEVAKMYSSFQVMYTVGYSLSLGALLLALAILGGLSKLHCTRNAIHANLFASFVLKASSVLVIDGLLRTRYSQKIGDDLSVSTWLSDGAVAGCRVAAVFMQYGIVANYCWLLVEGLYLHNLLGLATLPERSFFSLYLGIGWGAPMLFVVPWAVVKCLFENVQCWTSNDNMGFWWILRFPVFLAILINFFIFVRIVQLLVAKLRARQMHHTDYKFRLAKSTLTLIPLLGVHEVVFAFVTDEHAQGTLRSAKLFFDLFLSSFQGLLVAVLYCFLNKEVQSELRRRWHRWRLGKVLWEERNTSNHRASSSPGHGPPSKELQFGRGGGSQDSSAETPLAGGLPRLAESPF
In short: as §1

[3] = target: T3, human GLP-1 receptor (GLP-1R) (Homo sapiens, UniProt P43220); assay: cAMP assay, human GLP-1R cells
T3 construct: expressed in transfected cells
T3 sequence (P43220 24-463): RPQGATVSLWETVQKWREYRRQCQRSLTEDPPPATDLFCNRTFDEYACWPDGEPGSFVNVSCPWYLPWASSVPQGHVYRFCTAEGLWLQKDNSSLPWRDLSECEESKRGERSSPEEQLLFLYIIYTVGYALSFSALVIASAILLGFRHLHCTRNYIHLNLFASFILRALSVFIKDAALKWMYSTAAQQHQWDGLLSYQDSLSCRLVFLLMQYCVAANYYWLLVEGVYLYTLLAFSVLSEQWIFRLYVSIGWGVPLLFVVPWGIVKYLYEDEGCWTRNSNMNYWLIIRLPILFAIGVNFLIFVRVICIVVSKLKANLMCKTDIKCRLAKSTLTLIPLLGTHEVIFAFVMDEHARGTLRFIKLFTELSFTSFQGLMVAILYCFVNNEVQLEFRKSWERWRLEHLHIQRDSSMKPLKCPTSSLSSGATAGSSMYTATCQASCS
In short: as §1

[4] = first run (n1), cAMP activity, read-out: Primary assay EC50 GIP-R
[5] = second run (n2), cAMP activity, read-out: Primary assay EC50 GIP-R
[6] = first run (n1), cAMP activity of substituted and mono-lipidated peptides, read-out: Primary assay EC50 Gluc-R
[7] = second run (n2), cAMP activity, read-out: Primary assay EC50 Gluc-R
[8] = first run (n1), cAMP activity, read-out: Primary assay EC50 GLP-1R n1
[9] = mean of n1 and n2, read-out: Mean pM GLP-1R
[10] = second run (n2), cAMP activity, read-out: Primary assay EC50 GLP-1R n2

| EC50 ([1]; tris-lipidated peptides, first replicate, read-out: Primary assay EC50 GIP-R (n1)) [nM] | EC50 ([2]; tris-lipidated peptides, first replicate, read-out: Primary assay EC50 Gluc-R (n1)) [nM] | EC50 ([3]; tris-lipidated peptides, replicate n1, read-out: Primary assay EC50 GLP-1R n1) [pM] | EC50 [1, 4] [nM] | EC50 [1, 5] [nM] | EC50 [2, 6] [nM] | EC50 [2, 7] [nM] | EC50 [3, 8] [pM] | EC50 [3, 9] [pM] | EC50 [3, 10] [pM] | Structure (SMILES) |
| --- | --- | --- | --- | --- | --- | --- | --- | --- | --- | --- |
| ≥ 19.9 | ≥ 19.9 | 163 |  |  |  |  |  |  |  | CCCCCCCCCCCC(=O)N[C@@H](CCC(=O)NCCOCCOCC(=O)NCCOCCOCC(=O)NCCCC[C@H](NC(=O)CNC(=O)[C@H](CCC(=O)O)NC(=O)[C@H](CCCCNC(=O)COCCOCCNC(=O)COCCOCCNC(=O)CC[C@H](NC(=O)CCCCCCCCCCC)C(=O)O)NC(=O)[C@H](Cc1ccc(O)cc1)NC(=O)[C@H](CO)NC(=O)[C@](C)(CO)NC(=O)[C@@H](NC(=O)[C@H](CC(=O)O)NC(=O)[C@H](CO)NC(=O)[C@@H](NC(=O)[C@](C)(Cc1ccccc1)NC(=O)[C@H](CO)NC(=O)CNC(=O)[C@H](CCC(=O)O)NC(=O)C(C)(C)NC(=O)[C@@H](N)Cc1c[nH]cn1)[C@@H](C)O)C(C)C)C(=O)N[C@@H](C)C(=O)N[C@@H](C)C(=O)N[C@@](C)(CCCCN)C(=O)N[C@@H](CCC(=O)O)C(=O)N[C@@H](Cc1ccccc1)C(=O)N[C@H](C(=O)N[C@@H](C)C(=O)N[C@@H](Cc1ccccc1)C(=O)N[C@@H](CCCCNC(=O)COCCOCCNC(=O)COCCOCCNC(=O)CC[C@H](NC(=O)CCCCCCCCCCC)C(=O)O)C(=O)N[C@H](C(=O)N[C@@H](CCC(=O)O)C(=O)NCC(=O)NCC(N)=O)C(C)C)[C@@H](C)CC)C(=O)O [compound 484] (H-H[Aib]EGS[αMeF]TSDV[αMeS]SYK([AEEA-AEEA-γGlu-Lauroyl])EGK([AEEA-AEEA-γGlu-Lauroyl])AA[αMeK]EFIAFK([AEEA-AEEA-γGlu-Lauroyl])VEGG-NH2) |
|  |  |  | ≥ 28 | ≥ 28 | ≥ 28 | ≥ 28 | 240 | 154 | 68 | CC[C@H](C)[C@H](NC(=O)[C@](C)(Cc1ccccc1)NC(=O)[C@H](CCC(=O)O)NC(=O)[C@](C)(CCCCN)NC(=O)[C@H](C)NC(=O)[C@H](C)NC(=O)[C@H](CCC(=O)O)NC(=O)CNC(=O)[C@H](CCC(=O)O)NC(=O)[C@H](CC(C)C)NC(=O)[C@](C)(Cc1ccccc1)NC(=O)[C@H](CO)NC(=O)[C@](C)(CO)NC(=O)[C@@H](NC(=O)[C@H](CC(=O)O)NC(=O)[C@H](CO)NC(=O)[C@@H](NC(=O)[C@](C)(Cc1ccccc1)NC(=O)[C@H](CO)NC(=O)CNC(=O)[C@H](CCC(=O)O)NC(=O)C(C)(C)NC(=O)[C@@H](N)Cc1c[nH]cn1)[C@@H](C)O)C(C)C)C(=O)N[C@@H](C)C(=O)N[C@@](C)(Cc1ccccc1)C(=O)N[C@H](C(=O)N[C@H](C(=O)N[C@@H](CCCCNC(=O)CCCCCNC(=O)CCCCCCCCCCCCCCCCC(=O)O)C(=O)NCC(=O)NCC(N)=O)C(C)C)C(C)C [compound 194] |
|  |  |  | ≥ 28 | ≥ 28 | ≥ 28 | ≥ 28 | 250 | 182 | 110 | CC[C@H](C)[C@H](NC(=O)[C@](C)(Cc1ccccc1)NC(=O)[C@H](CCC(=O)O)NC(=O)[C@](C)(CCCCN)NC(=O)[C@H](C)NC(=O)[C@H](C)NC(=O)[C@H](CCC(=O)O)NC(=O)CNC(=O)[C@H](CCC(=O)O)NC(=O)[C@H](CC(C)C)NC(=O)[C@](C)(Cc1ccccc1)NC(=O)[C@H](CO)NC(=O)[C@](C)(CO)NC(=O)[C@@H](NC(=O)[C@H](CC(=O)O)NC(=O)[C@H](CO)NC(=O)[C@@H](NC(=O)[C@](C)(Cc1ccccc1)NC(=O)[C@H](CO)NC(=O)CNC(=O)[C@H](CCC(=O)O)NC(=O)C(C)(C)NC(=O)[C@@H](N)Cc1c[nH]cn1)[C@@H](C)O)C(C)C)C(=O)N[C@@H](C)C(=O)N[C@@](C)(Cc1ccccc1)C(=O)N[C@H](C(=O)N[C@H](C(=O)N[C@@H](CCCCNC(=O)CC[C@H](NC(=O)CCCCCCCCCCCCCCCCC(=O)O)C(=O)O)C(=O)NCC(=O)NCC(N)=O)C(C)C)C(C)C [compound 191] |
|  |  |  | ≥ 27 | ≥ 27 | ≥ 27 | ≥ 27 | 170 | 107 | 46 | CC[C@H](C)[C@H](NC(=O)[C@](C)(Cc1ccccc1)NC(=O)[C@H](CCC(=O)O)NC(=O)[C@](C)(CCCCN)NC(=O)[C@H](C)NC(=O)[C@H](C)NC(=O)[C@H](CCC(=O)O)NC(=O)CNC(=O)[C@H](CCC(=O)O)NC(=O)[C@H](CC(C)C)NC(=O)[C@](C)(Cc1ccccc1)NC(=O)[C@H](CO)NC(=O)[C@](C)(CO)NC(=O)[C@@H](NC(=O)[C@H](CC(=O)O)NC(=O)[C@H](CO)NC(=O)[C@@H](NC(=O)[C@](C)(Cc1ccccc1)NC(=O)[C@H](CO)NC(=O)CNC(=O)[C@H](CCC(=O)O)NC(=O)C(C)(C)NC(=O)[C@@H](N)Cc1c[nH]cn1)[C@@H](C)O)C(C)C)C(=O)N[C@@H](C)C(=O)N[C@@](C)(Cc1ccccc1)C(=O)N[C@H](C(=O)N[C@H](C(=O)N[C@@H](CCCCNC(=O)CCCCCNC(=O)CCCCCNC(=O)CCCCCCCCCCCCCCCCC(=O)O)C(=O)NCC(=O)NCC(N)=O)C(C)C)C(C)C [compound 195] |
